# Source: patent US20100298141A1, “SUBSTITUTED PYRIDINE N-OXIDE HERBICIDES” (E. I. DU PONT DE NEMOURS AND COMPANY, priority 2007, published 2010)
# How the values were obtained:
# Assay in all cases: Test F preemergence test
# Conditions in all cases: scale 0 to 100
# common groundsel = type: in vivo, Senecio vulgaris
# Method in brief: (§1)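 Visual ratings relative to controls, taken after 14 to 21 days in a greenhouse. Test chemicals, formulated in a surfactant-containing non-phytotoxic solvent mixture, were applied preemergence to sown seeds or postemergence to sugarcane plants.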
# naked crabgrass = type: in vivo, Digitaria nuda
# Method in brief: as §1
# kochia = type: in vivo, Kochia scoparia
# Method in brief: as §1
# johnsongrass = type: in vivo, Sorghum halepense
# Method in brief: as §1
# prickly sida = type: in vivo, Sida spinosa
# Method in brief: as §1
# mustard = type: in vivo, Brassica nigra
# Method in brief: as §1
# Surinam grass = type: in vivo, Brachiaria decumbens
# Method in brief: as §1
# dallisgrass = type: in vivo, Paspalum dilatatum
# Method in brief: as §1
# quackgrass = type: in vivo, Elytrigia repens
# Method in brief: as §1
# broadleaf signalgrass = type: in vivo, Brachiaria platyphylla
# Method in brief: as §1
# large crabgrass = type: in vivo, Digitaria sanguinalis
# Method in brief: as §1
# Italian ryegrass = type: in vivo, Lolium multiflorum
# Method in brief: as §1
# itchgrass = type: in vivo, Rottboellia cochinchinensis
# Method in brief: as §1
# goosegrass = type: in vivo, Eleusine indica
# Method in brief: as §1
# Virginia dayflower = type: in vivo, Commelina virginica
# Method in brief: as §1
# bermudagrass = type: in vivo, Cynodon dactylon
# Method in brief: as §1
# pitted morningglory = type: in vivo, Ipomoea lacunosa
# Method in brief: as §1
# common purslane = type: in vivo, Portulaca oleracea
# Method in brief: as §1
# guineagrass = type: in vivo, Panicum maximum
# Method in brief: as §1
# barnyardgrass = type: in vivo, Echinochloa crus-galli
# Method in brief: as §1
smiles,measurement,setting,value
Cn1nc(C(F)(F)F)c(C[S+]([O-])c2ccc(Cl)c[n+]2[O-])c1OC(F)F (centres unmarked) [Compound 6],"Plant response rating, Groundsel","common groundsel; 8 g ai/ha, preemergence",0
same,Groundsel plant response rating,"common groundsel; 62 g ai/ha, Preemergence",75
same,"Plant response rating, Groundsel","common groundsel; Preemergence, 16 g ai/ha",50
same,"Plant response rating, Groundsel","common groundsel; Preemergence, 31 g ai/ha",75
same,"Plant response rating, Crabgrass, Naked","naked crabgrass; 8 g ai/ha, preemergence",0
same,"Crabgrass, Naked plant response rating","naked crabgrass; 62 g ai/ha, Preemergence",100
same,"Plant response rating, Crabgrass, Naked","naked crabgrass; Preemergence, 16 g ai/ha",65
same,"Plant response rating, Crabgrass, Naked","naked crabgrass; Preemergence, 31 g ai/ha",80
same,"Plant response rating, Kochia","kochia; 8 g ai/ha, preemergence",0
same,Kochia plant response rating,"kochia; 62 g ai/ha, Preemergence",60
same,"Plant response rating, Kochia","kochia; Preemergence, 16 g ai/ha",0
same,"Plant response rating, Kochia","kochia; Preemergence, 31 g ai/ha",0
same,"Plant response rating, Johnsongrass","johnsongrass; 8 g ai/ha, preemergence",75
same,Johnsongrass plant response rating,"johnsongrass; 62 g ai/ha, Preemergence",95
same,"Plant response rating, Johnsongrass","johnsongrass; Preemergence, 16 g ai/ha",75
same,"Plant response rating, Johnsongrass","johnsongrass; Preemergence, 31 g ai/ha",95
same,"Plant response rating, Prickly Sida","prickly sida; 8 g ai/ha, preemergence",0
same,Prickly Sida plant response rating,"prickly sida; 62 g ai/ha, Preemergence",100
same,"Plant response rating, Prickly Sida","prickly sida; Preemergence, 16 g ai/ha",0
same,"Plant response rating, Prickly Sida","prickly sida; Preemergence, 31 g ai/ha",80
same,"Plant response rating, Black Mustard","mustard; 8 g ai/ha, preemergence",0
same,Black Mustard plant response rating,"mustard; 62 g ai/ha, Preemergence",100
same,"Plant response rating, Black Mustard","mustard; Preemergence, 16 g ai/ha",0
same,"Plant response rating, Black Mustard","mustard; Preemergence, 31 g ai/ha",100
same,"Plant response rating, Surinam Grass","Surinam grass; 8 g ai/ha, preemergence",0
same,"Plant response rating, Surinam Grass","Surinam grass; 16 g ai/ha, preemergence",60
same,Surinam Grass plant response rating,"Surinam grass; 62 g ai/ha, Preemergence",90
same,"Plant response rating, Surinam Grass","Surinam grass; Preemergence, 31 g ai/ha",70
same,"Plant response rating, Dallisgrass","dallisgrass; 8 g ai/ha, preemergence",0
same,Dallisgrass plant response rating,"dallisgrass; 62 g ai/ha, Preemergence",70
same,"Plant response rating, Dallisgrass","dallisgrass; Preemergence, 16 g ai/ha",20
same,"Plant response rating, Dallisgrass","dallisgrass; Preemergence, 31 g ai/ha",50
same,"Plant response rating, Quackgrass","quackgrass; 8 g ai/ha, preemergence",0
same,Quackgrass plant response rating,"quackgrass; 62 g ai/ha, Preemergence",75
same,"Plant response rating, Quackgrass","quackgrass; Preemergence, 16 g ai/ha",60
same,"Plant response rating, Quackgrass","quackgrass; Preemergence, 31 g ai/ha",65
same,"Plant response rating, Signalgrass","broadleaf signalgrass; 8 g ai/ha, preemergence",0
same,"Plant response rating, Signalgrass","broadleaf signalgrass; 16 g ai/ha, preemergence",50
same,Signalgrass plant response rating,"broadleaf signalgrass; 62 g ai/ha, Preemergence",95
same,"Plant response rating, Signalgrass","broadleaf signalgrass; Preemergence, 31 g ai/ha",65
same,"Plant response rating, Crabgrass, Large","large crabgrass; 8 g ai/ha, preemergence",0
same,"Crabgrass, Large plant response rating","large crabgrass; 62 g ai/ha, Preemergence",95
same,"Plant response rating, Crabgrass, Large","large crabgrass; Preemergence, 16 g ai/ha",15
same,"Plant response rating, Crabgrass, Large","large crabgrass; Preemergence, 31 g ai/ha",70
same,"Plant response rating, Ryegrass, Italian","Italian ryegrass; 8 g ai/ha, preemergence",0
same,"Ryegrass, Italian plant response rating","Italian ryegrass; 62 g ai/ha, Preemergence",85
same,"Plant response rating, Ryegrass, Italian","Italian ryegrass; Preemergence, 16 g ai/ha",40
same,"Plant response rating, Ryegrass, Italian","Italian ryegrass; Preemergence, 31 g ai/ha",75
same,"Plant response rating, Itchgrass","itchgrass; 8 g ai/ha, preemergence",0
same,Itchgrass plant response rating,"itchgrass; 62 g ai/ha, Preemergence",95
same,"Plant response rating, Itchgrass","itchgrass; Preemergence, 16 g ai/ha",60
same,"Plant response rating, Itchgrass","itchgrass; Preemergence, 31 g ai/ha",75
same,"Plant response rating, Goosegrass","goosegrass; 8 g ai/ha, preemergence",20
same,Goosegrass plant response rating,"goosegrass; 62 g ai/ha, Preemergence",95
same,"Plant response rating, Goosegrass","goosegrass; Preemergence, 16 g ai/ha",75
same,"Plant response rating, Goosegrass","goosegrass; Preemergence, 31 g ai/ha",90
same,"Plant response rating, Dayflower","Virginia dayflower; 8 g ai/ha, preemergence",0
same,Dayflower plant response rating,"Virginia dayflower; 62 g ai/ha, Preemergence",100
same,"Plant response rating, Dayflower","Virginia dayflower; Preemergence, 16 g ai/ha",90
same,"Plant response rating, Dayflower","Virginia dayflower; Preemergence, 31 g ai/ha",90
same,"Plant response rating, Bermudagrass","bermudagrass; 8 g ai/ha, preemergence",0
same,Bermudagrass plant response rating,"bermudagrass; 62 g ai/ha, Preemergence",80
same,"Plant response rating, Bermudagrass","bermudagrass; Preemergence, 16 g ai/ha",15
same,"Plant response rating, Bermudagrass","bermudagrass; Preemergence, 31 g ai/ha",65
same,"Plant response rating, Morningglory","pitted morningglory; 8 g ai/ha, preemergence",0
same,Morningglory plant response rating,"pitted morningglory; 62 g ai/ha, Preemergence",75
same,"Plant response rating, Morningglory","pitted morningglory; Preemergence, 16 g ai/ha",0
same,"Plant response rating, Morningglory","pitted morningglory; Preemergence, 31 g ai/ha",75
same,"Plant response rating, Purslane","common purslane; 8 g ai/ha, preemergence",10
same,Purslane plant response rating,"common purslane; 62 g ai/ha, Preemergence",70
same,"Plant response rating, Purslane","common purslane; Preemergence, 16 g ai/ha",20
same,"Plant response rating, Purslane","common purslane; Preemergence, 31 g ai/ha",50
same,"Plant response rating, Guineagrass","guineagrass; 8 g ai/ha, preemergence",100
same,Guineagrass plant response rating,"guineagrass; 62 g ai/ha, Preemergence",100
same,"Plant response rating, Guineagrass","guineagrass; Preemergence, 16 g ai/ha",100
same,"Plant response rating, Guineagrass","guineagrass; Preemergence, 31 g ai/ha",100
same,"Plant response rating, Barnyardgrass","barnyardgrass; 8 g ai/ha, preemergence",0
same,Barnyardgrass plant response rating,"barnyardgrass; 62 g ai/ha, Preemergence",90
same,"Plant response rating, Barnyardgrass","barnyardgrass; Preemergence, 16 g ai/ha",70
same,"Plant response rating, Barnyardgrass","barnyardgrass; Preemergence, 31 g ai/ha",80
